Experimental data taken from US20260364080A1, “PYRAZOLO-PYRIMIDINONE COMPOUNDS FOR USE IN METHODS OF INHIBITING WEE1 A KINASE” (Acrivon Therapeutics, Inc., priority 2023, published 2026).

Legend:
[1] = target: T1, recombinant human Wee1A kinase (Homo sapiens, UniProt P30291); experiment: Wee1A kinase binding assay (LanthaScreen Eu time-resolved FRET); settings: 30 nM tracer 178, 5 nM Wee1A kinase, 2 nM Eu-labeled antibody; 60 minutes at room temperature; read-out: Wee1A kinase Binding IC50
T1 construct: full length Wee1 kinase was expressed by baculovirus in insect cells; purchased Invitrogen PV3817; host or cells: insect cells (baculovirus)
Procedure, shortened: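 Full-length, baculovirus-expressed GST-tagged Wee1A (5 nM) was mixed with 2 nM Eu-anti-GST antibody, 30 nM kinase tracer 178 and compound (1% DMSO). Buffer was 50 mM HEPES pH 7.5, 10 mM MgCl2, 1 mM EGTA, 0.01% Brij-35, incubated 60 min at room temperature. TR-FRET 665/615 nm emission ratios from duplicates were curve-fitted.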

[2] = target: T2, Myt1 kinase (recombinant PMYT-1) (Homo sapiens, UniProt Q99640); experiment: Myt1 kinase binding assay (LanthaScreen Eu Kinase Binding Assay); settings: 3 nM tracer 178, 2.5 nM PMYT-1, 1 nM Eu-labeled antibody; read-out: Myt1 kinase Binding IC50
T2 construct: full length PMYT-1 was expressed by baculovirus in insect cells; purchased Invitrogen A30984; host or cells: insect cells (baculovirus)
T2 sequence (Q99640 1-499): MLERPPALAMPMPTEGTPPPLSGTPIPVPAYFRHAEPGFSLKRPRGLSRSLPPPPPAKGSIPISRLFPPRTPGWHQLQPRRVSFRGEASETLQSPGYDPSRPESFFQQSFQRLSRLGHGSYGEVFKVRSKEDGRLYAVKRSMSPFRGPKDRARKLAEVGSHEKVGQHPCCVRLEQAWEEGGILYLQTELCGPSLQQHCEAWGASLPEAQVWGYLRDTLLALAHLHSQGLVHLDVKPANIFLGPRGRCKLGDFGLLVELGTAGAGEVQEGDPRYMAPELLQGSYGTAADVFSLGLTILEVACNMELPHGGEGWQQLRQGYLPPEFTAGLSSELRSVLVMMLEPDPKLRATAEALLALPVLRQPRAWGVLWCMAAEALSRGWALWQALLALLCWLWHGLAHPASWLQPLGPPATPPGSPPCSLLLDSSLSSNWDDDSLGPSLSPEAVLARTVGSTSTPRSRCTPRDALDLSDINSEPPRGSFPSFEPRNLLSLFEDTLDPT
Procedure, shortened: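 Compound binding to Myt1 kinase was assessed using the LanthaScreen Eu Kinase Binding Assay. This europium-based binding format was applied to quantify how strongly each compound bound to the Myt1 enzyme, and the binding affinity was reported for each compound as an IC50 value.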

[3] = system: ACHN cells; experiment: Cell Titer Glo viability assay, ACHN cells; assay type: cell-based; settings: Homo sapiens, 144 h, absolute EC50
Method: Each of an ACHN renal cell carcinoma cell line (ATCC) and a DAOY medulloblastoma cell line, and an A427 lung cancer line were cultured in Minimum Essential Medium Eagle supplemented with 10% fetal calf serum (Sigma), 1% Penicillin-Streptomycin and 10 mM HEPES buffer (HyClone). Cell cultures were kept in a humidified incubator at 37 °C and 5% CO2. Cells were routinely tested for Mycoplasma contamination.
ACHN cells, DAOY cells, or A427 cells were seeded at a density of 400, 250, or 500 cells per well respectively, in tissue culture treated 384 well plates (Corning Costar). After overnight incubation, cells were treated with drugs at concentrations ranging from 17 to 10 000 nM. Viability compared to untreated control was assessed at 144 h using Cell Titer Glo assay 2.0 (Promega). […] “NT” means the compounds was not tested in the indicated cells.

[4] = target: T3, Wee1A kinase (CDK1 Tyr15 phosphorylation in ACHN renal cell carcinoma cells) (Homo sapiens, UniProt P30291); experiment: High-content imaging of pCdk1 Y15, Wee1A kinase target engagement in ACHN cells; assay type: cell-based; settings: 4 h treatment, nuclear positivity for pCdk1 Y15 vs DMSO control, read-out: CDK1 Tyr15 Phosphorylation EC50
T3 construct: pCDK1 Tyr15 immunofluorescence read-out
Procedure, shortened: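 EC50 values come from the per-well fraction of cells with nuclear pCdk1 Y15 staining, normalised to DMSO control, by automated immunofluorescence imaging. Cells were ACHN renal carcinoma, treated 4 h with compound at 7–5,000 nM or 0.3–200 nM.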

T3 sequence (P30291 whole entry): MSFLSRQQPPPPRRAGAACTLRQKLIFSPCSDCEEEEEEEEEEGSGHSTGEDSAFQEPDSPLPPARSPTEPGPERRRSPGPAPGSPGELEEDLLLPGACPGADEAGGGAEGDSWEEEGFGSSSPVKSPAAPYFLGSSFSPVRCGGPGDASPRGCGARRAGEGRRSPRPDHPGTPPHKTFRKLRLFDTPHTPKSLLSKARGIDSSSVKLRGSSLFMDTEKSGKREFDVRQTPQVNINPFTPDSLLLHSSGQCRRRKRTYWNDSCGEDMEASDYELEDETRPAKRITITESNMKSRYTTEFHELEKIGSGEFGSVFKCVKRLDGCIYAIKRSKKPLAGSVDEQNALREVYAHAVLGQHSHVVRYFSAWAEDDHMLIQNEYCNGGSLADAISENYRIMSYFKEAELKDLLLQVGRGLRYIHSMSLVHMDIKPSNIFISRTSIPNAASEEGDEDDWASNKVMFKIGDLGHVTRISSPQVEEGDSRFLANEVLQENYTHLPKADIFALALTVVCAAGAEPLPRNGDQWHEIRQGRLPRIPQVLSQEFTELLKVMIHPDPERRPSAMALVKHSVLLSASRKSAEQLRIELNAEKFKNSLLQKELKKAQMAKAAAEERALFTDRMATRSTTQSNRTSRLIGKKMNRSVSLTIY
T1 sequence (P30291 whole entry): as above

| Compound | IC50 [1] [nM] | IC50 [2] [nM] | EC50 [3] [nM] | EC50 [4] [nM] |
| --- | --- | --- | --- | --- |
| C=CCn1c(=O)c2cnc(Nc3ccc(OCC(F)(F)F)cc3)nc2n1-c1cccc(OC2CCNCC2)n1 [Compound 227, 2-allyl-1-[6-(4-piperidyloxy)-2-pyridyl]-6-[p-(2,2,2-trifluoroethoxy)phenylamino]-1,2-dihydro-3H-1,2,5,7-tetraazainden-3-one] | < 10 | < 20 | ≤ 100 | < 100 |
| CCn1c(=O)c2cnc(Nc3ccc4c(c3)ncn4C)nc2n1-c1cccc(OC2CCN(C)CC2)n1 [Compound 235, 2-ethyl-6-((1-methyl-1H-benzo[d]imidazol-5-yl)amino)-1-(6-((1-methylpiperidin-4-yl)oxy)pyridin-2-yl)-1,2-dihydro-3H-pyrazolo[3,4-d]pyrimidin-3-one] | < 10 | 20 to 100 | ≤ 100 | < 100 |
| C=CCn1c(=O)c2cnc(Nc3ccc4ccncc4c3)nc2n1-c1cccc(OC2CCNCC2)n1 [Compound 240, 2-allyl-6-(7-isoquinolylamino)-1-[6-(4-piperidyloxy)-2-pyridyl]-1,2-dihydro-3H-1,2,5,7-tetraazainden-3-one] | < 10 | 20 to 100 | 100 to 500 | 100 to 500 |
| C=CCn1c(=O)c2cnc(Nc3ccc4scnc4c3)nc2n1-c1cccc(OC2CCNCC2)n1 [Compound 246, 2-allyl-6-(benzo[d]thiazol-5-ylamino)-1-(6-(piperidin-4-yloxy)pyridin-2-yl)-1,2-dihydro-3H-pyrazolo[3,4-d]pyrimidin-3-one] | < 10 | < 20 | 100 to 500 | < 100 |
| C=CCn1c(=O)c2cnc(Nc3ccc(OCC(F)(F)F)cc3)nc2n1-c1ccnc(OC2CCNCC2)n1 [Compound 252, 2-allyl-1-(2-(piperidin-4-yloxy)pyrimidin-4-yl)-6-((4-(2,2,2-trifluoroethoxy)phenyl)amino)-1,2-dihydro-3H-pyrazolo[3,4-d]pyrimidin-3-one] | < 10 | 20 to 100 | 100 to 500 | < 100 |
| C=CCn1c(=O)c2cnc(Nc3ccc(OCC(C)C)cc3)nc2n1-c1cccc(OC2CCNCC2)n1 [Compound 256, 2-allyl-6-((4-isobutoxyphenyl)amino)-1-(6-(piperidin-4-yloxy)pyridin-2-yl)-1,2-dihydro-3H-pyrazolo[3,4-d]pyrimidin-3-one] | < 10 | < 20 | ≤ 100 | < 100 |
| CCn1c(=O)c2cnc(Nc3ccc4c(cnn4C)c3)nc2n1-c1cccc(NC2CCN(C)CC2)n1 [Compound 288, 2-ethyl-6-[(1-methyl-1H-indazol-5-yl)amino]-1-{6-[(1-methylpiperidin-4-yl)amino]pyridin-2-yl}-1H,2H,3H-pyrazolo[3,4-d]pyrimidin-3-one] | < 10 | > 500 | 100 to 500 | < 100 |
| CCn1c(=O)c2cnc(Nc3cccc(C)c3)nc2n1-c1cccc(OC2CCN(C)CC2)n1 [Compound 289, 2-ethyl-1-[6-(1-methyl-4-piperidyloxy)-2-pyridyl]-6-m-toluidino-1,2-dihydro-3H-1,2,5,7-tetraazainden-3-one] | < 10 | 100 to 500 | 100 to 500 | < 100 |
| CCn1c(=O)c2cnc(Nc3ccc(F)cc3)nc2n1-c1cccc(OC2CCN(C)CC2)n1 [Compound 290, 2-ethyl-6-(p-fluorophenylamino)-1-[6-(1-methyl-4-piperidyloxy)-2-pyridyl]-1,2-dihydro-3H-1,2,5,7-tetraazainden-3-one] | < 10 | 100 to 500 | 100 to 500 | 100 to 500 |
| C=CCn1c(=O)c2cnc(Nc3cncc(C)c3)nc2n1-c1cccc(OC2CCN(C)CC2)n1 [Compound 292, 1-{6-[(1-methylpiperidin-4-yl)oxy]pyridin-2-yl}-6-[(5-methylpyridin-3-yl)amino]-2-(prop-2-en-1-yl)-1H,2H,3H-pyrazolo[3,4-d]pyrimidin-3-one] | < 10 | 20 to 100 | ≤ 100 | < 100 |
| CCn1c(=O)c2cnc(Nc3cccc(C)c3)nc2n1-c1cccc(OC2CCNCC2)n1 [Compound 298, 2-ethyl-1-[6-(4-piperidyloxy)-2-pyridyl]-6-m-toluidino-1,2-dihydro-3H-1,2,5,7-tetraazainden-3-one] | < 10 | 100 to 500 | 100 to 500 | 100 to 500 |
| C=CCn1c(=O)c2cnc(Nc3ccc(C#N)cc3)nc2n1-c1cccc(OC2CCN(C)CC2)n1 [Compound 301, p-{2-allyl-1-[6-(1-methyl-4-piperidyloxy)-2-pyridyl]-3-oxo-1,2-dihydro-3H-1,2,5,7-tetraazainden-6-ylamino}benzonitrile] | < 10 | 20 to 100 | ≤ 100 | < 100 |
| C=CCn1c(=O)c2cnc(Nc3ccc(F)cc3)nc2n1-c1cccc(OC2CCNCC2)n1 [Compound 304, 2-allyl-6-(p-fluorophenylamino)-1-[6-(4-piperidyloxy)-2-pyridyl]-1,2-dihydro-3H-1,2,5,7-tetraazainden-3-one] | < 10 | 20 to 100 | 100 to 500 | < 100 |
| C=CCn1c(=O)c2cnc(Nc3cccc(C#N)c3)nc2n1-c1cccc(OC2CCN(C)CC2)n1 [Compound 305, m-{2-allyl-1-[6-(1-methyl-4-piperidyloxy)-2-pyridyl]-3-oxo-1,2-dihydro-3H-1,2,5,7-tetraazainden-6-ylamino}benzonitrile] | < 10 | 20 to 100 | ≤ 100 | < 100 |
| CCn1c(=O)c2cnc(Nc3ccc4c(cnn4C)c3)nc2n1-c1cccc(OC2CCNCC2)n1 [Compound 306, 2-ethyl-6-(1-methyl-1H-indazol-5-ylamino)-1-[6-(4-piperidyloxy)-2-pyridyl]-1,2-dihydro-3H-1,2,5,7-tetraazainden-3-one] | < 10 | 20 to 100 | 100 to 500 | 100 to 500 |
| CCn1c(=O)c2cnc(Nc3ccc(C#N)cc3)nc2n1-c1cccc(OC2CCN(C)CC2)n1 [Compound 310, p-{2-ethyl-1-[6-(1-methyl-4-piperidyloxy)-2-pyridyl]-3-oxo-1,2-dihydro-3H-1,2,5,7-tetraazainden-6-ylamino}benzonitrile] | < 10 | 20 to 100 | 100 to 500 | 100 to 500 |
| C=CCn1c(=O)c2cnc(Nc3ccc(F)cc3)nc2n1-c1ccnc(NC2CCN(C)CC2)n1 [Compound 312, 2-allyl-6-(p-fluorophenylamino)-1-[2-(1-methyl-4-piperidylamino)-4-pyrimidinyl]-1,2-dihydro-3H-1,2,5,7-tetraazainden-3-one] | < 10 | 100 to 500 | 100 to 500 | < 100 |
| C=CCn1c(=O)c2cnc(Nc3ccc(OCC(F)(F)F)cc3)nc2n1-c1ccnc(NC2CCN(C)CC2)n1 [Compound 314, 2-allyl-1-[2-(1-methyl-4-piperidylamino)-4-pyrimidinyl]-6-[p-(2,2,2-trifluoroethoxy)phenylamino]-1,2-dihydro-3H-1,2,5,7-tetraazainden-3-one] | < 10 | 20 to 100 | ≤ 100 | < 100 |
